Holding throughout (experiment): NCI anticancer screen, dose series, 48 h
For test [1], the system named is A498 renal.
Test [2] deals with HS 578T breast.
For test [3], the system named is SF-295 CNS.
Test [4] has as its system NCI-H226 lung.
Test [5] concerns SF-268 CNS.
Test [6] deals with SNB-75 CNS.
In test [7] the test system is SF-539 CNS.
In test [8] the test system is HT29 colon.

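Compound exposure: 48 hours, 5 concentrations, 96-well plates. GI50: concentration for 50% inhibition of growth. TGI: total growth inhibition.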

The values below come from PubChem BioAssay (NCI).

On to `CCCCCCNc1nc(N2CCOCC2)c2[nH]c(NCCCCCC)nc2n1`, for which the GI50 in test [1] was 1.11 µM; in test [2] it was 1.37 µM; in test [3], 1.65 µM; in test [4], 1.7 µM; in test [5], 1.78 µM; in test [6], 1.46 µM. In addition, the GI50 in test [7] is 1.82 µM. Besides, the TGI in test [1] was determined as 2.31 µM; in test [2] it was 3.16 µM; in test [3], 3.21 µM; in test [4], 4 µM; in test [5] it was 3.44 µM; in test [6], 2.77 µM. Besides, the TGI in test [7] was determined as 3.33 µM.

With `O=C(Nc1ccc(Cl)cc1)c1cc(S(=O)(=O)Nc2nnc(-c3ccccc3)c(-c3ccccc3)n2)c(SCc2ccccc2)cc1Cl`, the GI50 is 20.4 µM in test [1]; 20.6 µM in test [2]; 19 µM in test [3]; 27.7 µM in test [4]; 26.9 µM in test [5]; 28.3 µM in test [8]. For the same compound, the GI50 in test [7] was 35 µM. Further, the TGI in test [1] was 77.9 µM; in test [2] it was 71.1 µM; in test [3], 41.5 µM; in test [4] it was over 70.2 µM; in test [5] it was over 68.3 µM; in test [8], over 82 µM. In test [7], the TGI is over 100 µM.

As for `Cc1cc(C)c2c(SCc3ccc(Cl)cc3Cl)nc(N)nc2n1`, the TGI in test [1], in test [2], in test [3], in test [4], in test [5] and in test [6] was over 100 µM in each case. In test [8], the TGI was over 100 µM.

Regarding `O=[N+]([O-])c1ccc(/C=C(/c2ccc([N+](=O)[O-])o2)S(=O)(=O)c2ccccc2)o1`, the TGI was determined as 44.3 µM in test [2]; 34.2 µM in test [3]; 3.65 µM in test [4]; 32.4 µM in test [5]; 33.7 µM in test [6]; 13.6 µM in test [8]. Also, the TGI in test [7] was found to be 37.7 µM.

For the compound `C=CCC(N[C@H](CO)c1ccccc1)c1cn(S(=O)(=O)c2ccc(C)cc2)c2ccccc12` (stereo partly specified), the GI50 in test [2] is 24.3 µM; in test [3], 8.19 µM; in test [5], over 100 µM; in test [6] it was 66.2 µM; in test [8], 31.2 µM; in test [7] it was 21.4 µM. Further, the TGI was 60.5 µM in test [2]; 34.8 µM in test [3]; over 100 µM in test [5]; over 100 µM in test [6]; over 100 µM in test [8]; 38.2 µM in test [7].

On to `Cc1ccc2c(c1)O/C(=C\c1ccc([N+](=O)[O-])o1)C2=O`, for which the GI50 was 3.77 µM in test [1]; 2.09 µM in test [2]; 2.42 µM in test [3]; 1.91 µM in test [5]; 2.85 µM in test [6]; 0.659 µM in test [8]. Also, the TGI is 18.6 µM in test [1]; 6.25 µM in test [2]; 7.06 µM in test [3]; 5.03 µM in test [5]; over 100 µM in test [6]; 2.08 µM in test [8].

On to `C#Cc1cccc(Oc2ccc(NC(=O)CCl)cc2)c1`, for which the GI50 in test [2], in test [3], in test [4], in test [5], in test [6] and in test [8] was over 82.5 µM throughout. Besides, the GI50 in test [7] is over 82.5 µM. The TGI in test [2], in test [3], in test [4], in test [5], in test [6] and in test [8] was over 82.5 µM throughout. Further, in test [7], the TGI is over 82.5 µM.

Take `CC(O)(CNS(=O)(=O)c1ccccc1)c1ccccc1` (stereo unspecified): the TGI in test [1], in test [2], in test [3], in test [4], in test [5] and in test [6] was over 100 µM in each case. Moreover, the TGI in test [8] was over 100 µM.

On to `Cc1ccc(C2C3=C(N=c4s/c(=C/c5ccc(Br)cc5)c(=O)n42)c2ccc4ccccc4c2OCC3)cc1` (stereo unspecified), for which the GI50 in test [1] is over 100 µM; in test [2], over 100 µM; in test [3], over 100 µM; in test [5], over 100 µM; in test [6] it was over 100 µM; in test [8], 67.8 µM. In addition, the GI50 in test [7] is over 100 µM. The TGI in test [1], in test [2], in test [3], in test [5], in test [6] and in test [8] was over 100 µM each time. In test [7], this compound had a TGI of over 100 µM.

For the compound `CC(=O)/C=C/C1=C(c2cccs2)c2ccccc2CC1`, the GI50 in test [1] is 23.7 µM; in test [2], 29.5 µM; in test [3], 22.5 µM; in test [4], 28.7 µM; in test [6] it was 25.6 µM; in test [8], 26.9 µM. Also, the GI50 in test [7] was 27.5 µM. The TGI in test [1] worked out at 47.9 µM; in test [2], 98.6 µM; in test [3], 54.5 µM; in test [4], 93.5 µM; in test [6], 68.1 µM; in test [8] it was 68.4 µM. The compound further registered a TGI in test [7] of 81 µM.

Regarding `CC(=O)[C-](C(C)=O)c1ccccc1.CC(=O)[C-](C(C)=O)c1ccccc1.CC[O-].CC[O-].[Ti+4]`, the GI50 in test [3], in test [4], in test [5], in test [6], in test [8] and in test [7] was over 100 µM each time. Moreover, the TGI in test [3], in test [4], in test [5], in test [6], in test [8] and in test [7] was over 100 µM each time.

In the case of `CCCCCCCCCCCCCC(=O)C(C)N` (stereo unspecified), the GI50 in test [2] was 9.16 µM; in test [3], 2.88 µM; in test [4], 21.8 µM; in test [5], 3.96 µM; in test [6], 6.56 µM; in test [8], 3.89 µM. Also, the GI50 in test [7] is 6.63 µM. For the same compound, the TGI stood at 29.1 µM in test [2]; 10 µM in test [3]; 44.3 µM in test [4]; 16 µM in test [5]; 20.7 µM in test [6]; 13.7 µM in test [8]. In test [7], this compound returned a TGI of 21.6 µM.
